Laboratory results as given in patent US5430150A, “Retroviral protease inhibitors” (American Cyanamid Company, priority 1992, dated 1995).
Where two headings read alike, the source gives them in different places. Each block holds one molecule with its values, some of them ahead of it.

How the values were obtained:
HIV-1 protease = HIV-1 protease (Human immunodeficiency virus type 1 group M subtype B, UniProt P04585); experiment: biochemical; assay type: biochemical
Experimental: IC50 values for enzyme inhibition are determined using HIV-1 and Amersham's HIV proteinase [^125 I]-scintillation proximity assay (SPA).
Amersham's HIV proteinase [^125 I]-SPA system is a commercial assay incorporating the scintillation proximity assay (SPA) principle available from Amersham International PLC, Bucks, England.
The SPA microspheres provided by Amersham have the substrate linked directly to the surface through a streptavidin-biotin link. The substrate is a 12 residue peptide designed specifically for this application utilizing current knowledge of known cleavage sites for the enzyme and analogue substrate studies. The sequence of the substrate is: [drawing 22]
The peptide is monoiodinated on the tyrosine residue and biotinylated through the epsilon-NH2 group on the lysine. It is linked to the SPA bead via a streptavidin-link. The beads are suspended in a buffer consisting of 5 mM DTT, 1 mM EDTA, 10% w/v glycerol, 0.05% W/v sodium azide, 0.01% v/v Triton X-100 in 25 mM sodium citrate buffer pH 5.5.
The enzyme cleaves at the Phe-Phe bond releasing the ^125 I fragment from the bead. This event causes the removal of detectable signal from the microsphere. […] The rate of reduction in signal is proportional to the activity of the enzyme. The obtained data is used to calculate the IC50 values found in Table 1.

[1] = tested on: HIV-1 strain IIIB in T lymphoid MT-2 cell lines; experiment: inhibition of growth of HIV-1 strain IIIB in T lymphoid MT-2 cell lines (metabolic MTT dye); assay type: cell-based; settings: Human immunodeficiency virus 1, IIIB, MT2, 120 h, 5 days; for inhibition at 0.01 µg/mL: 0.010 μg/ml, read-out: % Inhibition at concentration 0.010 μg/ml; for inhibition at 0.039 µg/mL: 0.039 μg/ml, read-out: % Inhibition at concentration 0.039 μg/ml; for inhibition at 0.156 µg/mL: 0.156 μg/ml, read-out: % Inhibition at concentration 0.156 μg/ml; for inhibition at 0.625 µg/mL: 0.625 μg/ml, read-out: % Inhibition at concentration 0.625 μg/ml; for inhibition at 2.5 µg/mL: 2.5 μg/ml, read-out: % Inhibition at concentration 2.5 μg/ml
Experimental: In Table 2, data is shown for the ability of these compounds to inhibit growth of HIV-1 strain IIIB in T lymphoid MT-2 cell lines. The cell line is challenged by free virons selected to result in 90-95% cell death (CPE) by day 5. The protease inhibitor compound is then added in the stated concentration. After 5 days, the surviving cells are measured using metabolic MTT dye.

[2] = Activity of Compounds as Enzyme Inhibitor

IC50 (HIV-1 protease; [2]): 415 nM
SMILES: CC[C@H](C)[C@H](NC(=O)[C@H](Cc1ccccc1)CC(O)(CO)CN1C[C@H]2CCCC[C@H]2C[C@H]1C(=O)NC(C)(C)C)C(=O)OC (relative stereo) [Example 30, 3S-[2(2S*),3alpha,4abeta,8abeta]]-N-[5-[3-[[(1,1-Dimethylethyl)amino]carbonyl]octahydro-2(1H)-isoquinolinyl]4-hydroxy-4-(hydroxymethyl)-1-oxo-2-(phenylmethyl)pentyl]-L-isoleucine methyl ester]

IC50 (HIV-1 protease; [2]): 72.8 nM
SMILES: CC[C@H](C)[C@H](NC(=O)[C@H](Cc1ccccc1)CC(O)CN1C[C@H]2CCCC[C@H]2C[C@H]1C(=O)NC(C)(C)C)C(=O)NCc1nc2ccccc2[nH]1 (single isomer, unassigned) [Example 24A, [3S-[2[alphaS*(1R*,2R*),gammaR*(or S*),3alpha,4abeta,8abeta]]-N-[1-[[(1H-Benzimidazol-2-ylmethyl)amino]carbonyl]-2-methylbutyl]-3-[(1,1-dimethylethyl)amino]carbonyl]decahydro-gamma-hydroxy-alpha-(pentylmethyl)-2-isoquinolinepentanamide]
inhibition at 0.01 µg/mL [1]: 10.7%
inhibition at 0.039 µg/mL [1]: 63.3%
inhibition at 0.156 µg/mL [1]: 100%
inhibition at 0.625 µg/mL [1]: 103%
inhibition at 2.5 µg/mL [1]: 96%

SMILES: CC[C@H](C)[C@H](NC(=O)[C@H](Cc1ccccc1)CC(O)(CO)CN1C[C@H]2CCCC[C@H]2C[C@H]1C(=O)NC(C)(C)C)C(=O)NCc1nc2ccccc2[nH]1 (stereo partly drawn) [Example 21, [3S-[2[alphaS*(1R*,2R*),gammaR*(and S*),3alpha,4abeta,8abeta]]-N[1-[[(1H-Benzimidazol-2-ylmethyl)amino]carbonyl]-2-methylbutyl]-3-[[(1,1-dimethylethyl)amino]carbonyl]decahydro-gamma-hydroxy-gamma-(hydroxymethyl)alpha-(phenylmethyl)-2-isoquinolinepentanamide]
inhibition at 0.01 µg/mL [1]: 0%
inhibition at 0.039 µg/mL [1]: 8.1%
inhibition at 0.156 µg/mL [1]: 33%
inhibition at 0.625 µg/mL [1]: 103%
inhibition at 2.5 µg/mL [1]: 102%
IC50 (HIV-1 protease; [2]): 69.7 nM

IC50 (HIV-1 protease; [2]): 72.8 nM
SMILES: CC[C@H](C)[C@H](NC(=O)[C@H](Cc1ccccc1)CC(O)CN1C[C@H]2CCCC[C@H]2C[C@H]1C(=O)NC(C)(C)C)C(=O)NCc1nc2ccccc2[nH]1 (stereo partly drawn) [Example 23, [3S-[2[alphaS*(1R*,2R*),gammaR* (and S*)],3alpha,4abeta,8abeta]]-N-[1-[[(1H-Benzimidazol-2-ylmethyl)amino]carbonyl]-2-methylbutyl]-3-[[(1,1-dimethylethyl)amino]carbonyl]decahydro-gamma-hydroxy-alpha-(phenylmethyl)-2-isoquinolinepentanamide]
inhibition at 0.01 µg/mL [1]: 13%
inhibition at 0.039 µg/mL [1]: 78.7%
inhibition at 0.156 µg/mL [1]: 93.6%
inhibition at 0.625 µg/mL [1]: 95.8%
inhibition at 2.5 µg/mL [1]: 98.5%

IC50 (HIV-1 protease; [2]): 738 nM
SMILES: CC[C@H](C)[C@H](NC(=O)[C@H](Cc1ccccc1)CC(O)(CO)CN1C[C@H]2CCCC[C@H]2C[C@H]1C(=O)NC(C)(C)C)C(=O)NCc1ccccn1 (stereo partly drawn) [Example 26, [3S-[2[gammaR*(and S*),gamma[alphaS*[1R*,1(R*)]]],3alpha,4abeta,8abeta]]-3-[[(1,1-Dimethylethyl)amino]carbonyl]octahydro-gamma-hydroxy-gamma-(hydroxymethyl)-N-[[2-methyl-1-[[(2-pyridinylmethyl)amino]carbonyl]butyl]-alpha-(phenylmethyl)-2(1H)-isoquinolinepentanamide]

IC50 (HIV-1 protease; [2]): 154 nM
SMILES: CC[C@H](C)[C@H](NC(=O)[C@H](Cc1ccccc1)CC(O)CN1C[C@H]2CCCC[C@H]2C[C@H]1C(=O)NC(C)(C)C)C(=O)NCc1ccccn1 (stereo partly drawn) [Example 28, [3S-[2[gammaR*(and S*),gamma[alphaS*[1R,1(R*)]]]],3alpha,4abeta,8abeta]]-3-[[(1,1-Dimethylethyl)amino]carbonyl]octahydro-gamma-hydroxy-N-[2-methyl-1-[[(2-pyridinylmethyl)amino]carbonyl]butyl]-alpha-(phenylmethyl)-2(1H)-isoqinolinepentanamide]

SMILES: CC[C@H](C)[C@H](NC(=O)[C@H](Cc1ccccc1)CC(O)CN1C[C@H]2CCCC[C@H]2C[C@H]1C(=O)NC(C)(C)C)C(=O)OC (stereo partly drawn) [Example 32, [3S-[2[2S*,4R*(and S*)],3alpha,4abeta,8abeta]-N-[5-[3-[[(1,1-Dimethylethyl)amino]carbonyl]octahydro-2(1H)-isoquinolinyl]-4-hydroxy-1-oxo-2-(phenylmethyl)pentyl]-L-isoleucinemethyl ester]
IC50 (HIV-1 protease; [2]): 874 nM

IC50 (HIV-1 protease; [2]): 68.9 nM
SMILES: CC(C)(C)NC(=O)[C@@H]1C[C@@H]2CCCC[C@@H]2CN1CC(O)(CO)C[C@@H](Cc1ccccc1)C(=O)N[C@H]1CCCC[C@@H]1NC(=O)c1ccc2ccccc2n1 (stereo partly shown) [Example 35]
inhibition at 0.01 µg/mL [1]: 0%
inhibition at 0.039 µg/mL [1]: 0%
inhibition at 0.156 µg/mL [1]: 1.97%
inhibition at 0.625 µg/mL [1]: 0%
inhibition at 2.5 µg/mL [1]: 0%

IC50 (HIV-1 protease): 71.8 nM
SMILES: CC(C)(C)NC(=O)[C@@H]1C[C@@H]2CCCC[C@@H]2CN1CC(O)C[C@@H](Cc1ccccc1)C(=O)N[C@H]1CCCC[C@@H]1NC(=O)c1ccc2ccccc2n1 (stereo partly drawn) [Example 37, [3S-[2[2S*(2R*,1R*)],3alpha,4abeta,8abeta]]-N-2-[[5-[3-[[(1,1-dimethylethyl)amino]carbonyl]octahydro-2(1H )-isoquinolinyl]-4-hydroxy-1-oxo-2-(phenylmethyl)pentyl]amino]cyclohexyl]-2-quinolinecarboxamide]
inhibition at 0.01 µg/mL [1]: 0.95%
inhibition at 0.039 µg/mL [1]: 0%
inhibition at 0.156 µg/mL [1]: 0%
inhibition at 0.625 µg/mL [1]: 4.37%
inhibition at 2.5 µg/mL [1]: 49.1%

IC50 (HIV-1 protease; [2]): 55.1 nM
SMILES: CC(C)(C)NC(=O)[C@@H]1C[C@@H]2CCCC[C@@H]2CN1CC(O)(CO)C[C@@H](Cc1ccccc1)C(=O)N[C@H]1CCCC[C@@H]1NC(=O)c1cc2ccccc2cn1 (stereo partly shown) [Example 40]
inhibition at 0.01 µg/mL [1]: 0%
inhibition at 0.039 µg/mL [1]: 0%
inhibition at 0.156 µg/mL [1]: 1.88%
inhibition at 0.625 µg/mL [1]: 0.91%
inhibition at 2.5 µg/mL [1]: 13.8%

IC50 (HIV-1 protease; [2]): 79 nM
SMILES: CC(C)(C)NC(=O)[C@@H]1C[C@@H]2CCCC[C@@H]2CN1CC(O)C[C@@H](Cc1ccccc1)C(=O)N[C@H]1CCCC[C@@H]1NC(=O)c1cc2ccccc2cn1 (stereo partly drawn) [Example 42, [3S-[2[alphaS*[1R*,1(2R*)]],3alpha,4abeta,8abeta]]-3-[[(1,1-Dimethylethyl)amino]carbonyl)octahydro-gamma-hydroxy-N-[2-[(3-isoquinolinylcarbonyl)amino]cyclohexyl]-alpha-(phenylmethyl)-2-(1H)-isoquinolinepentanamide]
inhibition at 0.01 µg/mL [1]: 4.33%
inhibition at 0.039 µg/mL [1]: 0%
inhibition at 0.156 µg/mL [1]: 4.21%
inhibition at 0.625 µg/mL [1]: 12.9%
inhibition at 2.5 µg/mL [1]: 86.8%

IC50 (HIV-1 protease): 128 nM
SMILES: CC[C@H](C)[C@H](NC(=O)[C@H](Cc1ccccc1)CC(O)CN1C[C@H]2CCCC[C@H]2C[C@H]1C(=O)NC(C)(C)C)C(=O)N[C@@H](C)c1nc2ccccc2[nH]1 (stereo partly drawn) [Example 51, [3S-[2alphaS*[1R*,1(R*),2R*]],3alpha,4abeta,8abeta]]-N-[1-[[[1H-benzimidazol-2-yl)ethyl]amino]carbonyl]-2-methylbutyl]-3-[[(1,1-dimethylethyl)amino]carbonyl]octahydro-gamma-hydroxy-alpha-phenylmethyl)-2(1H)-isoquinolinepentanamide]
inhibition at 0.01 µg/mL [1]: 1.67%
inhibition at 0.039 µg/mL [1]: 2.24%
inhibition at 0.156 µg/mL [1]: 10.4%
inhibition at 0.625 µg/mL [1]: 55.1%
inhibition at 2.5 µg/mL [1]: 72.9%
